Assay results published in ChEMBL document CHEMBL1201862, “PubChem BioAssay data set” (2004).
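How tested: cells in 96-well plates exposed to compound for 48 hours at five concentrations. Abbreviation: GI50, concentration required for 50% inhibition of growth.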 The source made the active and inactive calls. Rule as the data show it: active = GI50 up to about 1.1 µM and inactive = higher.

Key:
Assay in all cases: inhibition of tumour cell growth, NCI panel, 48 h
[1] = test system: ACHN
[2] = test system: OVCAR-4
[3] = test system: EKVX
[4] = test system: COLO 205
[5] = test system: Malme-3M
[6] = test system: HCT-15
[7] = test system: SK-MEL-5
[8] = test system: PC-3
[9] = test system: LOX IMVI
[10] = test system: CCRF-CEM
[11] = test system: OVCAR-8
[12] = test system: MDA-MB-435
[13] = test system: KM12
[14] = test system: SF-295
[15] = test system: RPMI-8226
[16] = test system: RXF 393
[17] = test system: K562
[18] = test system: SN12C
[19] = test system: SW-620
[20] = test system: HT-29
[21] = test system: NCI/ADR-RES
[22] = test system: HCC 2998
[23] = test system: OVCAR-3
[24] = test system: HCT-116
[25] = test system: UACC-62
[26] = test system: NCI-H23
[27] = test system: SK-MEL-28
[28] = test system: HL-60
[29] = test system: NCI-H460
[30] = test system: SNB-19
[31] = test system: SK-OV-3
[32] = test system: SF-268
[33] = test system: A549
[34] = test system: DU-145
[35] = test system: T47D
[36] = test system: SF-539
[37] = test system: MDA-N
[38] = test system: M14
[39] = test system: MOLT-4
[40] = test system: NCI-H226
[41] = test system: TK-10
[42] = test system: A498
[43] = test system: MCF7
[44] = test system: HOP-62
[45] = test system: NCI-H522
[46] = test system: OVCAR-5
[47] = test system: Hs-578T
[48] = test system: UO-31
[49] = test system: IGROV-1
[50] = test system: MDA-MB-231
[51] = test system: SK-MEL-2
[52] = test system: SR
[53] = test system: U-251
[54] = test system: CAKI-1
[55] = test system: SNB-75
[56] = test system: HOP-92
[57] = test system: UACC-257
[58] = test system: 786-0

For `O=Cc1cn(CCCCCCCCn2cc(C=O)c3ccccc32)c2ccccc12`, the GI50 [1] was > 10 µM (inactive), the GI50 [2] was > 10 µM (inactive) and the GI50 [3] was > 10 µM (inactive). For the same molecule, the GI50 [4] was > 10 µM (inactive), the GI50 [5] was > 10 µM (inactive) and the GI50 [6] was over 10 µM. The GI50 [7] was 4.17 µM (inactive), the GI50 [8] was 4.22 µM (inactive) and the GI50 [9] was 7.57 µM (inactive). For the same molecule, the GI50 [10] was > 10 µM (inactive), the GI50 [11] was > 10 µM (inactive) and the GI50 [12] was > 10 µM (inactive). For the same molecule, the GI50 [13] was > 10 µM (inactive), the GI50 [14] was 6.41 µM (inactive) and the GI50 [15] was 3.96 µM (inactive). For the same molecule, the GI50 [16] was > 10 µM (inactive), the GI50 [17] was 3.27 µM (inactive) and the GI50 [18] was > 10 µM (inactive). For the same molecule, the GI50 [19] was > 10 µM (inactive), the GI50 [20] was > 10 µM (inactive) and the GI50 [21] was 5.15 µM (inactive). The GI50 [22] was > 10 µM (inactive), the GI50 [23] was > 10 µM (inactive) and the GI50 [24] was 7.4 µM (inactive). For the same molecule, the GI50 [25] was > 10 µM (inactive), the GI50 [26] was 2.19 µM (inactive) and the GI50 [27] was > 10 µM (inactive). For the same molecule, the GI50 [28] was 5.46 µM (inactive), the GI50 [29] was 0.561 µM (active) and the GI50 [30] was > 10 µM (inactive). The GI50 [31] was > 10 µM (inactive), the GI50 [32] was > 10 µM (inactive) and the GI50 [33] was 6.59 µM (inactive). The GI50 [34] was 8.05 µM (inactive), the GI50 [35] was 3.91 µM (inactive) and the GI50 [36] was > 10 µM (inactive). For the same molecule, the GI50 [37] was > 10 µM (inactive), the GI50 [38] was > 10 µM (inactive) and the GI50 [39] was 6.37 µM (inactive). The GI50 [40] was 8.24 µM (inactive), the GI50 [41] was > 10 µM (inactive) and the GI50 [42] was 1.63 µM (inactive). The GI50 [43] was 7.13 µM (inactive), the GI50 [44] was > 10 µM (inactive) and the GI50 [45] was > 10 µM (inactive). The GI50 [46] was 8.79 µM (inactive), the GI50 [47] was 6.49 µM (inactive) and the GI50 [48] was > 10 µM (inactive). The GI50 [49] was > 10 µM (inactive), the GI50 [50] was > 10 µM (inactive) and the GI50 [51] was > 10 µM (inactive). The GI50 [52] was 9.57 µM (inactive), the GI50 [53] was > 10 µM (inactive) and the GI50 [54] was > 10 µM (inactive). For the same molecule, the GI50 [55] was 5.6 µM (inactive).
With `O=C(O)c1cc2ccccc2c(/N=N/c2ccc(S(=O)(=O)Nc3nccs3)cc2)c1O` the GI50 [1] was > 100 µM (inactive), the GI50 [2] was > 100 µM (inactive) and the GI50 [3] was > 100 µM (inactive). The GI50 [4] was > 100 µM (inactive), the GI50 [5] was > 100 µM (inactive) and the GI50 [6] was over 100 µM. The GI50 [7] was > 100 µM (inactive), the GI50 [8] was > 100 µM (inactive) and the GI50 [10] was > 100 µM (inactive). For the same molecule, the GI50 [11] was > 100 µM (inactive), the GI50 [12] was > 100 µM (inactive) and the GI50 [13] was > 100 µM (inactive). For the same molecule, the GI50 [14] was > 100 µM (inactive), the GI50 [15] was > 100 µM (inactive) and the GI50 [16] was > 100 µM (inactive). For the same molecule, the GI50 [17] was > 100 µM (inactive), the GI50 [18] was > 100 µM (inactive) and the GI50 [19] was > 100 µM (inactive). The GI50 [20] was > 100 µM (inactive), the GI50 [21] was > 100 µM (inactive) and the GI50 [22] was > 100 µM (inactive). For the same molecule, the GI50 [23] was > 100 µM (inactive), the GI50 [24] was > 100 µM (inactive) and the GI50 [56] was > 100 µM (inactive). For the same molecule, the GI50 [25] was > 100 µM (inactive), the GI50 [26] was > 100 µM (inactive) and the GI50 [27] was > 100 µM (inactive). The GI50 [28] was > 100 µM (inactive), the GI50 [29] was > 100 µM (inactive) and the GI50 [57] was > 100 µM (inactive). The GI50 [31] was > 100 µM (inactive), the GI50 [32] was > 100 µM (inactive) and the GI50 [33] was > 100 µM (inactive). The GI50 [34] was > 100 µM (inactive), the GI50 [35] was > 100 µM (inactive) and the GI50 [36] was > 100 µM (inactive). The GI50 [37] was > 100 µM (inactive), the GI50 [38] was > 100 µM (inactive) and the GI50 [39] was > 100 µM (inactive). The GI50 [40] was > 100 µM (inactive), the GI50 [41] was > 100 µM (inactive) and the GI50 [58] was > 100 µM (inactive). For the same molecule, the GI50 [43] was > 100 µM (inactive), the GI50 [44] was > 100 µM (inactive) and the GI50 [45] was > 100 µM (inactive). For the same molecule, the GI50 [46] was > 100 µM (inactive), the GI50 [47] was > 100 µM (inactive) and the GI50 [48] was > 100 µM (inactive). The GI50 [49] was > 100 µM (inactive), the GI50 [50] was > 100 µM (inactive) and the GI50 [51] was > 100 µM (inactive). For the same molecule, the GI50 [52] was > 100 µM (inactive), the GI50 [53] was > 100 µM (inactive) and the GI50 [54] was > 100 µM (inactive). For the same molecule, the GI50 [55] was > 100 µM (inactive).
In the case of `CC1(C)O[C@@H](CO)[C@H]([C@@]23OC[C@H]4OC(C)(C)OC4[C@@H]2OC(C)(C)O3)O1` (stereo partly specified), the GI50 [1] is reported as > 100 µM (inactive), the GI50 [2] is reported as > 100 µM (inactive) and the GI50 [3] is reported as > 100 µM (inactive). The GI50 [4] was > 100 µM (inactive), the GI50 [5] was > 100 µM (inactive) and the GI50 [6] was over 100 µM. For the same molecule, the GI50 [7] was 20.3 µM (inactive), the GI50 [8] was > 100 µM (inactive) and the GI50 [9] was > 100 µM (inactive). For the same molecule, the GI50 [11] was > 100 µM (inactive), the GI50 [12] was > 100 µM (inactive) and the GI50 [13] was > 100 µM (inactive). The GI50 [14] was > 100 µM (inactive), the GI50 [15] was > 100 µM (inactive) and the GI50 [16] was > 100 µM (inactive). The GI50 [17] was > 100 µM (inactive), the GI50 [18] was > 100 µM (inactive) and the GI50 [19] was > 100 µM (inactive). For the same molecule, the GI50 [20] was > 100 µM (inactive), the GI50 [21] was > 100 µM (inactive) and the GI50 [22] was > 100 µM (inactive). For the same molecule, the GI50 [23] was > 100 µM (inactive), the GI50 [24] was > 100 µM (inactive) and the GI50 [56] was > 100 µM (inactive). For the same molecule, the GI50 [26] was > 100 µM (inactive), the GI50 [27] was > 100 µM (inactive) and the GI50 [28] was > 100 µM (inactive). For the same molecule, the GI50 [29] was > 100 µM (inactive), the GI50 [30] was > 100 µM (inactive) and the GI50 [31] was > 100 µM (inactive). For the same molecule, the GI50 [32] was > 100 µM (inactive), the GI50 [33] was > 100 µM (inactive) and the GI50 [34] was > 100 µM (inactive). The GI50 [35] was > 100 µM (inactive), the GI50 [37] was > 100 µM (inactive) and the GI50 [38] was > 100 µM (inactive). For the same molecule, the GI50 [39] was > 100 µM (inactive), the GI50 [40] was > 100 µM (inactive) and the GI50 [58] was > 100 µM (inactive). The GI50 [43] was > 100 µM (inactive), the GI50 [44] was > 100 µM (inactive) and the GI50 [45] was > 100 µM (inactive). The GI50 [46] was > 100 µM (inactive), the GI50 [47] was > 100 µM (inactive) and the GI50 [48] was > 100 µM (inactive). For the same molecule, the GI50 [49] was > 100 µM (inactive), the GI50 [50] was > 100 µM (inactive) and the GI50 [51] was > 100 µM (inactive). The GI50 [52] was > 100 µM (inactive), the GI50 [53] was > 100 µM (inactive) and the GI50 [55] was > 100 µM (inactive).
